Data set [1] concerns HT 90. Nature of the data set: MTT assay, tumor cell growth inhibition. The class given is cell-based. As to conditions: human rectal cancer cells HT 90 (text: HT29), 48h culture with compound. The method, then: (§1) For example, 180 µl suspension of human rectal cancer cells HCT116, Lovo, SW480 and HT29 (at a concentration of 4×10^4/mL) was added to a 96 well plate, and pre-cultured under 5% CO2, 37°C and saturated moisture for 24h. 150 µl medium was replaced, and 20 µl medium containing molecular assembly at different concentrations was added. The cells were cultured for another 48h, with the medium free of a sample as a negative control, and a medium containing camptothecin, oxaliplatin or fluorouracil at different concentrations as positive controls. MTT assay was used to determine the OD value, and the growth inhibition rate was calculated. The inhibition of compounds at high, medium and low concentration on the tumor cell proliferation was observed. All the experiments above were performed in triplet. The results of in vitro experiment of the arteannuin cyclodextrin conjugate on human rectum and caecum cancer cell are shown in table 1. Table 1. The comparison of IC50 values (µM) for the cyclodextrin carrier-based arteannuinoid compound conjugate according to the present disclosure and some arteannuinoid compounds in several rectal cancer cells.
In general terms: Tetrazolium assays rely on reduction of a dye to a coloured formazan, in cell work by metabolically active cells.

In data set [2] the test system is SW480. Nature of the data set: MTT assay, tumor cell growth inhibition. The format is cell-based. As to conditions: human rectal cancer cells SW480, 48h culture with compound. How it is done: as §1
In data set [3] the test system is Lovo. Nature of the data set: MTT assay, tumor cell growth inhibition. The format is cell-based. As to conditions: human rectal cancer cells Lovo, 48h culture with compound. How it is done: as §1
For data set [4], the system named is HCT116. Nature of the data set: MTT assay, tumor cell growth inhibition. The class given is cell-based. As to conditions: human rectal cancer cells HCT116, 48h culture with compound. The method, then:
as §1

In data set [5] the test system is mouse hepatocarcinoma H22. Particulars: 300 mg/kg by gavage; cited from earlier work.
Data set [6] in a line: solubility in water. Particulars: in words. The format is physicochemical. The source says:
Also, the cyclodextrin carrier-based arteannuinoid compound is absorbed in merely a small amount when passing through stomach and small intestine of a human body, which is mainly absorbed by the large intestine, with a property of releasing in straight cecum. Therefore, the cyclodextrin carrier-based arteannuinoid compound according to the present disclosure can effectively enter the body of a patient, improving the bioavailability.

The text below walks through data of patent EP2974743B1, “CYCLODEXTRIN CARRIER-BASED ARTEANNUIN COMPOUND CONJUGATE AND PREPARING METHOD THEREOF” (KPC Pharmaceuticals, Inc., priority 2012, dated 2014).

As for “mono-6-artesunate-β-cyclodextrin conjugate [Example 1]”, the IC50 – broadly, the concentration at which inhibition is half-maximal – in data set [1] was 5.3 µM; in data set [2], 3.92 µM; in data set [3] it was 0.72 µM; in data set [4] it was 0.84 µM.

For the compound `C[C@H]1[C@H](OC(=O)CCC(=O)O)O[C@@H]2O[C@@]3(C)CC[C@H]4[C@H](C)CC[C@@H]1[C@@]24OO3` [artesunate], the anti-tumor rate entry in data set [5] is recorded as “above 40%”. Further, the solubility in water entry in data set [6] is given as “almost insoluble in water”.
